Test results published in ChEMBL document CHEMBL3880391, “Tetrahydroquinoline derivatives as glycine antagonists” (2002).

What was measured:
[1] = Toxicity in orally dosed mouse assessed as induction of untoward effects; assay type: organism-based; conditions: in vivo, po
[2] = test system: Mus musculus; assay: Analgesic activity in mouse assessed as inhibition of formalin-induced pain by measuring time spent licking injected paw for first 5 minutes (early phase) and from 20 to 60 mins (late phase) administered orally 1 hr before formalin injection by formalin test; assay type: functional

Structure (SMILES) | Activity [1] | ED50 [2] | ED50 ([2]; Mus musculus, po, read-out: ED50)
O=C([O-])C1CC(C2=CCN(c3ccccc3)C2=O)c2c(Cl)cc(Cl)cc2N1.[Na+] (racemic) | Non-Toxic |  | 
O=C([O-])C1C/C(=C2/CCN(c3ccccc3)C2=O)c2c(Cl)cc(Cl)cc2N1.[Na+] (centres undefined) | Non-Toxic |  | 
O=C([O-])C1CC(C2=CCN(c3ccccc3)C2=O)c2ccc(Cl)cc2N1.[Na+] (single isomer, unassigned) |  | 0.3 mg/kg | 
CC(=O)Nc1ccc(N2CC/C(=C3\CC(C(=O)O)Nc4cc(Cl)ccc43)C2=O)cc1 (racemic) | Non-Toxic |  | 
O=C([O-])C1CC(C2=CCN(c3ccccc3)C2=O)c2ccc(Cl)cc2N1.[Na+] (racemic) | Non-Toxic |  | 
O=C([O-])C1C/C(=C2/NC(=O)N(c3ccccc3)C2=O)c2ccc(Cl)cc2N1.[Na+] (racemic) | Non-Toxic |  | 
O=C([O-])C1CC(C2=CCN(c3cccnc3)C2=O)c2ccc(Cl)cc2N1.[Na+] (racemic) | Non-Toxic |  | 
O=C([O-])C1CC(C2=CCN(c3ccccc3)C2=O)c2ccc(Cl)cc2N1.[Na+] (single isomer, unassigned; (-)) |  | 0.03 mg/kg | 
O=C([O-])C1C/C(=C2\CCN(c3ccccc3)C2=O)c2ccc(Cl)cc2N1.[Na+] (single isomer, unassigned; (-)) | Non-Toxic |  | 0.14 mg/kg
O=C([O-])C1CC(C2=CCCN(c3ccccc3)C2=O)c2ccc(Cl)cc2N1.[Na+] (racemic) | Non-Toxic |  | 
CS(=O)(=O)Nc1ccc(N2CC=C(C3CC(C(=O)[O-])Nc4cc(Cl)ccc43)C2=O)cc1.[Na+] (racemic) | Non-Toxic |  | 
CC(=O)Nc1ccc(N2CC=C(C3CC(C(=O)O)Nc4cc(Cl)ccc43)C2=O)cc1 (racemic) | Non-Toxic |  | 
O=C([O-])C1C/C(=C2\CCN(c3cccnc3)C2=O)c2ccc(Cl)cc2N1.[Na+] (racemic) | Non-Toxic |  | 
